Data reported in patent publication US9702880B2, “Antisense RNA for treating cancer and inhibition of metastasis and vectors for antisense sequestration” (Istituto Superiore di Sanità, priority 2008, dated 2017).
Like-named read-outs stand apart in the source and are kept apart here.

Assays:
LNCaP cells = conditions: 10 ng/ml
Method: FIG. 12A Evaluation of cell death and caspase activation in RWPE-1 cells infected with TW3′ or decoy15/16 vectors and treated with 10 ng/ml of docetaxel. Caspase activation was measured after 4 h of treatment. FIG. 12B Evaluation of cell death and caspase activation in LNCaP cells infected with TW or TWmiR-15a/miR-16 vectors and exposed to 10 ng/ml of docetaxel. FIG. 12C-D Evaluation of cell death and caspase activation in miR15a/miR-16 defective or non-defective (normal) primary tumor cells transduced as indicated and treated with 10 ng/ml docetaxel. FIG. 12C. Cell death was measured after 24 h exposure to docetaxel. FIG. 12D. Caspase activation in LNCaP and primary tumor cells was measured after 18 h of treatment. Data are mean±s.d. of at least three independent experiments for each group.
Cell death was evaluated by trypan blue staining, PI staining and flow cytometry analysis, Apo-percentage assay (Biocolor) and Cell Titer kit (Promega). Caspase activation was detected using APO-one Homogeneous Caspase3/7 Assay Kit (Promega).

cyclin D1 3′UTR = assay: Luciferase reporter assay, pGL3-3′UTR cotransfected with miR oligos; format: cell-based, human; conditions: K562 cells, 25 pmol oligo, 48 hours post-transfection, vs scrambled oligos
Method: (§1) 3′UTR segments of Bcl-2, cyclin D1 and Wnt3a were amplified by PCR from normal human genomic DNA and subcloned into the 3′UTR of the firefly luciferase coding sequence into pGL3-Promoter (Promega), see Supplementary Methods. Then K562 (5×10^4 cells per well) were transfected using Lipofectamine 2000 (Invitrogen) following the manufacturer's instructions. The transfection mix included: (a) 0.8 μg of pGL3-3′UTR plasmid and 50 ng of the control vector pRL-TK (Promega); (b) 25 pmol of either non-targeting RNA control (scrambled) or miR-15a or miR-16 oligonucleotides (Ambion). Forty-eight hours post-transfection, firefly and renilla luciferase activities were measured using the Dual Luciferase Assay kit (Promega). Transfection efficiencies were normalized by calculating the ratio of firefly to renilla. For each construct the relative luciferase activities were calculated by dividing the values obtained in the transfection of miR-15a and miR-16 by those of miR scrambled. Each experiment was performed in duplicate and replicated five times.
(§2) The miR-15a/miR-16 target genes UTRs were cloned in the Xba I site of pGL3 promoter, immediately downstream from the stop codon of the luciferase coding sequence. For Bcl-2, a 3′UTR of 1329 bp fragment was amplified, corresponding to residues 2446-3774 of Genbank Acc No M14745. For cyclin D1 3′UTR, a 1036 bp fragment was amplified ([…] of No NM_053056). For Wnt3a 3′UTR, a 906 bp fragment was amplified (residues 2026-2932 of No NM_033131.2). For 3′UTR cyclin D1 and Wnt3a mutagenesis, a five nucleotide mutation was inserted in the “seed” sequences interacting with miR-15a and miR-16 (see FIGS. 13A-C). Modified and HPLC purified oligonucleotides (Invitrogen) were used for amplification and mutagenesis, performed with Pfu enzyme following the in vitro mutagenesis kit protocol (Invitrogen). Transfection efficiencies of luciferase assays were normalized by calculating the ratio firefly/renilla. For each construct the relative luciferase activities were obtained by dividing the values obtained in the transfection of miR-15a and miR-16 by those of the non targeting miR scrambled. Each experiment was performed in duplicate and replicated five times.
(§3) To validate our targets, we subcloned the 3′UTR of these genes at the 3′ of the cDNA encoding luciferase in an expression construct and performed cotransfection experiments with miR-15a/miR-16. We narrowed our analysis to 1 kb regions harbouring the putative miR-15a/miR-16 target sites. The Bcl-2 3′UTR was tested in parallel as positive control. Luciferase assay was performed by cotransfecting pGL3-3′UTR vectors along with synthetic miR-15a, miR-16 and a control miR with a scrambled sequence.

Wnt3a 3′UTR = assay: as above; format: cell-based, human; conditions: K562 cells, 25 pmol oligo, 48 hours post-transfection, vs scrambled oligos
Method: as §1, §2, §3

Bcl-2 3′UTR = assay: Luciferase reporter assay, pGL3-3′UTR cotransfected with miR oligos (positive control); format: cell-based, human; conditions: K562 cells, 25 pmol oligo, 48 hours post-transfection, vs scrambled oligos
Method: as §1
The miR-15a/miR-16 target genes UTRs were cloned in the Xba I site of pGL3 promoter, immediately downstream from the stop codon of the luciferase coding sequence. For Bcl-2, a 3′UTR of 1329 bp fragment was amplified, corresponding to residues 2446-3774 of Genbank Acc No M14745. […]

Pim-1 UTR = assay: Luciferase reporter assay, pGL3-3′UTR cotransfected with miR oligos; format: cell-based, human; conditions: K562 cells, 48 hours post-transfection, vs scrambled oligos

Compound: CC(=O)O[C@@]12CO[C@@H]1C[C@H](O)[C@@]1(C)C(=O)[C@H](O)C3=C(C)[C@@H](OC(=O)[C@H](O)[C@@H](NC(=O)OC(C)(C)C)c4ccccc4)C[C@@](O)([C@@H](OC(=O)c4ccccc4)[C@H]21)C3(C)C [docetaxel]
- Cytotoxic activity of docetaxel (LNCaP cells; empty vector-transduced LNCaP cells): scarcely sensitive
- Cytotoxic activity of docetaxel (LNCaP cells; miR-15a/miR-16 reconstituted LNCaP cells): massively killed

Compound: miR-15a: mature miR 15, SEQ ID NO 4, 5′-UAGCAGCACAUAAUGGUUUGUG-3′; synthetic oligonucleotide (Ambion) in reporter assays (listed as RNA, chemistry not given here; listed as Homo sapiens)
- Luciferase reporter activity (cyclin D1 3′UTR): consistent reduction in reporter activity
- Luciferase reporter activity (Wnt3a 3′UTR): consistent reduction in reporter activity
- Luciferase reporter activity (Bcl-2 3′UTR): consistent reduction in reporter activity
- Luciferase reporter activity (Pim-1 UTR): non-targeted region

Compound: miR-16: mature miR 16, SEQ ID NO. 5, 5′-UAGCAGCACGUAAAUAUUGGCG-3′; synthetic oligonucleotide (Ambion) in reporter assays (listed as RNA, chemistry not given here; listed as Homo sapiens)
- Luciferase reporter activity (cyclin D1 3′UTR): consistent reduction in reporter activity
- Luciferase reporter activity (Wnt3a 3′UTR): consistent reduction in reporter activity
- Luciferase reporter activity (Bcl-2 3′UTR): consistent reduction in reporter activity
- Luciferase reporter activity (Pim-1 UTR): non-targeted region
